From article PMC8286840, “Identifying SARS-CoV-2 antiviral compounds by screening for small molecule inhibitors of Nsp3 papain-like protease” (Biochemical Journal, 2021) come the findings set out here.

Test [1] concerns the target T1, SARS-CoV-2 PLpro (nsp3 1564–1878) (Severe acute respiratory syndrome coronavirus 2, UniProt P0DTD1). In words: biochemical. Details: FRET-quenched peptide (Pro3) cleavage by PLpro, 10 min pre-incubation, slope over 20 min, normalised to no-compound control. The note with it: high concentration screen, read-out: % of control remaining.
For test [2], the target named is T1, SARS-CoV-2 PLpro (nsp3 1564–1878). In words: biochemical. The note with it: low concentration screen, read-out: % of control remaining. Also noted: FRET-quenched peptide (Pro3) cleavage by PLpro, 10 min pre-incubation, slope over 20 min, normalised to no-compound control.

Counter-ions that a name gives are not always drawn. Like-named read-outs stand apart in the source and are kept apart here. Where a SMILES comes first, the peptide text is derived from it. [ ]: non-standard residue; d: D form. The star is where a group is joined. Dolaproine = CO[C@@H]([C@@H]1CCCN1)[C@@H](C)C(=O)O; Hexanoyl(6-maleimido) = O=C1C=CC(=O)N1CCCCCC(=O)*; Dil = CC[C@H](C)[C@H](NC)[C@@H](CC(=O)O)OC; Doe = c1ccc(C[C@H](N*)c2nccs2)cc1; X2 = C[C@@H](N*)[C@@H](O)c1ccccc1; NMeV = CN[C@H](C(=O)O)C(C)C

Turning to `CNc1ncnc2c1ncn2[C@H]1C[C@H](OP(=O)(O)O)[C@@H](COP(=O)(O)O)O1` [MRS 2179], the remaining activity at 3.75 µM in test [1] (Well no.=926) came out at 103%. For the same compound, the remaining activity at 1.25 µM in test [2] (Well no.=926) was 98.6%.

On to `S=C=Nc1cccc(NC(=S)NCCCCNC(=S)Nc2cccc(N=C=S)c2)c1` [MRS 2578], for which, in test [1] (Well no.=7275), the remaining activity at 3.75 µM was found to be 95.2%. Also, the values for the remaining activity at 1.25 µM in test [2] (Well no.=4797) and in test [2] (Well no.=7275) were 93.1% and 95%, respectively.

`CCCn1c(=O)c2[nH]c(-c3ccc(OCC(=O)Nc4ccc(C(C)=O)cc4)cc3)nc2n(CCC)c1=O` [MRS-1706]: the remaining activity at 3.75 µM in test [1] (Well no.=8511) worked out at 105%. The remaining activity at 1.25 µM in test [2] (Well no.=8511) is 102%.

As to `Cc1cc(/N=N/c2ccc(S(=O)(=O)Nc3ccccn3)cc2)c(N)cc1O` [MS436], in test [1] (Well no.=7590), the remaining activity at 3.75 µM is 96.8%. In test [2] (Well no.=7590), the remaining activity at 1.25 µM stood at 93.3%.

For the compound `c1cnc(NCc2ccc(CNc3ncccn3)cc2)nc1` [MSX-122], the remaining activity at 3.75 µM in test [1] (Well no.=8075) was 84.8%; in test [1] (Well no.=8397), 90.4%. For the same compound, the remaining activity at 1.25 µM in test [2] (Well no.=8075) worked out at 97%; in test [2] (Well no.=8397) it was 89.1%.

Consider `Cc1nc(C#Cc2cccnc2)cs1` [MTEP (hydrochloride)], for which, in test [1] (Well no.=7283), the remaining activity at 3.75 µM came to 94.9%. Also, the remaining activity at 1.25 µM in test [2] (Well no.=7283) came out at 92.5%.

As to `Cc1ccc(NS(=O)(=O)c2ccc3c(c2)C2C=CCC2C(c2ccc(C(=O)O)cc2)N3)cc1C` (centres unmarked) [MX69], the remaining activity at 3.75 µM in test [1] (Well no.=6822) is 94.1%; in test [1] (Well no.=7984), 98.5%. Further, the remaining activity at 1.25 µM is 97.6% in test [2] (Well no.=6822) and 100% in test [2] (Well no.=7984).

In the case of `CCCNS(=O)(=O)Nc1ncnc(OCCOc2ncc(Br)cn2)c1-c1ccc(Br)cc1` [Macitentan], the remaining activity at 3.75 µM in test [1] (Well no.=4830) was determined as 97.8%; in test [1] (Well no.=8253) it was 90.3%. Further, the remaining activity at 1.25 µM in test [2] (Well no.=4830) was 97.6%; in test [2] (Well no.=8253) it was 97.3%.

For the compound `C[C@H]1[C@H](C)CC[C@]2(C(=O)O)CC[C@]3(C)C(=CC[C@@H]4[C@@]5(C)C[C@@H](O)[C@H](O)[C@@](C)(CO)[C@@H]5[C@H](O)C[C@]43C)[C@H]12` [Madecassic acid], the remaining activity at 3.75 µM in test [1] (Well no.=3657) was 104%. In test [2] (Well no.=3657), the remaining activity at 1.25 µM stood at 104%.

For the compound `C=CCc1ccc(O)c(-c2cc(CC=C)ccc2O)c1` [Magnolol], the remaining activity at 3.75 µM in test [1] (Well no.=3659) amounted to 98.1%. Moreover, the remaining activity at 1.25 µM in test [2] (Well no.=3659) is 96.1%.

As to `O=C(O)/C=C\C(=O)O` [Maleic Acid], in test [1] (Well no.=6593), the remaining activity at 3.75 µM came out at 101%. Besides, the remaining activity at 1.25 µM in test [2] (Well no.=6593) was 100%.

For `O=C(O)CC(O)C(=O)O` (centres unmarked) [Malic acid], in test [1] (Well no.=6637), the remaining activity at 3.75 µM amounted to 110%. The remaining activity at 1.25 µM in test [2] (Well no.=6637) is 106%.

As to `CC(C)OC(=O)C(C(=O)OC(C)C)=C1SC=CS1` [Malotilate], the remaining activity at 3.75 µM in test [1] (Well no.=8884) worked out at 84.3%. Further, in test [2] (Well no.=8884), the remaining activity at 1.25 µM came to 85.8%.

Consider `COC(=O)C1=C(C)NC(C)=C(C(=O)OCCN2CCN(C(c3ccccc3)c3ccccc3)CC2)C1c1cccc([N+](=O)[O-])c1` (centres unmarked) [Manidipine], for which the remaining activity at 3.75 µM in test [1] (Well no.=1788) was 99.9%. Besides, in test [2] (Well no.=1788), the remaining activity at 1.25 µM is 104%.

For `C=C[C@](C)(O)CC[C@H]1C(=C)CC[C@H]2C(C)(C)CCC[C@]12C` [Manool], the remaining activity at 3.75 µM in test [1] (Well no.=3389) stood at 98.7%. The remaining activity at 1.25 µM in test [2] (Well no.=3389) came out at 95.7%.

On to `CNCCC[C@]12CC[C@H](c3ccccc31)c1ccccc12` [Maprotiline hydrochloride], for which the remaining activity at 3.75 µM in test [1] (Well no.=845) is 103%. In test [2] (Well no.=845), the remaining activity at 1.25 µM amounted to 103%.

For `CNCCCC12CCC(c3ccccc31)c1ccccc12` [Maprotiline.HCl], in test [1] (Well no.=1787), the remaining activity at 3.75 µM was determined as 96.8%. In addition, in test [2] (Well no.=1787), the remaining activity at 1.25 µM stood at 95.1%.

For `Cc1nnc(C(C)C)n1[C@@H]1C[C@H]2CC[C@@H](C1)N2CC[C@H](NC(=O)C1CCC(F)(F)CC1)c1ccccc1` [Maraviroc], the remaining activity at 3.75 µM in test [1] (Well no.=4678) was 100%; in test [1] (Well no.=8691), 102%. In addition, the remaining activity at 1.25 µM in test [2] (Well no.=4678) was determined as 103%; in test [2] (Well no.=8691), 101%.

With `O=C(/C=C/c1ccc(O)c(O)c1)c1ccc(O[C@@H]2O[C@H](CO)[C@@H](O)[C@H](O)[C@H]2O)c(O)c1O` [Marein], in test [1] (Well no.=3731), the remaining activity at 3.75 µM is 95.9%. In test [2] (Well no.=3731), the remaining activity at 1.25 µM was 91.7%.

Turning to `O=C1/C(=C/c2ccc(O)c(O)c2)Oc2c1ccc(O[C@@H]1O[C@H](CO)[C@@H](O)[C@H](O)[C@H]1O)c2O` [Maritimein], the remaining activity at 3.75 µM in test [1] (Well no.=3339) turned out to be 97.6%. Further, the remaining activity at 1.25 µM in test [2] (Well no.=3339) amounted to 91.1%.

On to `O=C(c1ccccc1O)c1[nH]c(Cl)c(Cl)c1-n1c(C(=O)c2ccccc2O)cc(Cl)c1Cl` [Maritoclax], for which the remaining activity at 3.75 µM in test [1] (Well no.=6588) was 99.2%. The remaining activity at 1.25 µM in test [2] (Well no.=6588) is 101%.

Consider `O=C1CCC[C@@H]2[C@H]3CCCN4CCC[C@@H](CN12)[C@@H]34` [Matrine], for which the results for the remaining activity at 3.75 µM in test [1] (Well no.=3661) and in test [1] (Well no.=8341) were 103% and 94.7%, respectively. For the same compound, the remaining activity at 1.25 µM in test [2] (Well no.=3661) stood at 101%; in test [2] (Well no.=8341) it was 100%.

In the case of `NCCCCN(Cc1nc2ccccc2[nH]1)[C@H]1CCCc2cccnc21` [Mavorixafor (trihydrochloride)], the remaining activity at 3.75 µM in test [1] (Well no.=8167) stood at 103%. The remaining activity at 1.25 µM in test [2] (Well no.=8167) was 109%.

In the case of `CC[C@H](C)[C@@H]([C@@H](CC(=O)N1CCC[C@H]1[C@H](OC)[C@@H](C)C(=O)N[C@@H](Cc1ccccc1)c1nccs1)OC)N(C)C(=O)[C@@H](NC(=O)[C@H](C(C)C)N(C)C(=O)CCCCCN1C(=O)C=CC1=O)C(C)C` [Mc-MMAD] ({Hexanoyl(6-maleimido)}-[NMeV]V[Dil][Dolaproine]-Doe), the remaining activity at 3.75 µM in test [1] (Well no.=8610) was found to be 91.2%. The remaining activity at 1.25 µM in test [2] (Well no.=8610) worked out at 95.3%.

On to `CC[C@H](C)[C@@H]([C@@H](CC(=O)N1CCC[C@H]1[C@H](OC)[C@@H](C)C(=O)N[C@H](C)[C@@H](O)c1ccccc1)OC)N(C)C(=O)[C@@H](NC(=O)[C@H](C(C)C)N(C)C(=O)CCCCCN1C(=O)C=CC1=O)C(C)C` [Mc-MMAE] ({Hexanoyl(6-maleimido)}-[NMeV]V[Dil][Dolaproine]-X2), for which, in test [1] (Well no.=8552), the remaining activity at 3.75 µM amounted to 98.9%. In addition, the remaining activity at 1.25 µM in test [2] (Well no.=8552) was 93.6%.

With `CC[C@H](C)[C@@H]([C@@H](CC(=O)N1CCC[C@H]1[C@H](OC)[C@@H](C)C(=O)N[C@@H](Cc1ccccc1)C(=O)O)OC)N(C)C(=O)[C@@H](NC(=O)[C@H](C(C)C)N(C)C(=O)CCCCCN1C(=O)C=CC1=O)C(C)C` [McMMAF] ({Hexanoyl(6-maleimido)}-[NMeV]V[Dil][Dolaproine]F-OH), the remaining activity at 3.75 µM in test [1] (Well no.=7742) was 101%. Besides, the remaining activity at 1.25 µM in test [2] (Well no.=7742) is 97.3%.

Turning to `C[N+](C)(C)CC#CCOC(=O)Nc1cccc(Cl)c1` [McN-A-343], the remaining activity at 3.75 µM in test [1] (Well no.=184) worked out at 96.2%. Further, the remaining activity at 1.25 µM in test [2] (Well no.=184) was determined as 102%.
